Like-named read-outs stand apart in the source and are kept apart here.
What was measured:
[1] = target: T1, cathepsin L (Homo sapiens, UniProt P07711); test: Kinetics of cathepsin L inhibition by metal ions, fluorogenic substrate Z-Leu-Arg-AMC; type: biochemical; details: for Mechanism: specific velocity plot
T1 construct: made in house; host or cells: E. coli

[2] = target: T2, cathepsin K (Homo sapiens, UniProt P43235); test: Kinetics of cathepsin K inhibition by metal ions, fluorogenic substrate Z-Phe-Arg-AMC; type: biochemical; details: for Mechanism: specific velocity plot / titration
T2 construct: made in house; host or cells: E. coli
T2 sequence (P43235 115-329): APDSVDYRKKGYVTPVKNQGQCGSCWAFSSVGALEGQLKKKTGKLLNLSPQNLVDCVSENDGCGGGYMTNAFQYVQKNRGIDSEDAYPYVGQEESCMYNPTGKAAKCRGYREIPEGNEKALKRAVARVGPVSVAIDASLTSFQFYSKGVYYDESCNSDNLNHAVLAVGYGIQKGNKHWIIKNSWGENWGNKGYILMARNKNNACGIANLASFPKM

[3] = target: T3, cathepsin S (Homo sapiens, UniProt P25774); test: Kinetics of cathepsin S inhibition by metal ions, fluorogenic substrate Z-Val-Val-Arg-AMC; type: biochemical; details: for Mechanism: specific velocity plot / titration
T3 construct: made in house; host or cells: E. coli

[4] = target: T3, cathepsin S; test: Degradation of insoluble bovine neck ligament elastin by cathepsin S; type: biochemical; details: metal ions 0.5 mM
Protocol: (§1) Degradation of insoluble elastin was performed and analyzed according to the protocol in ref. [51]. Briefly, reactions were performed using 200 µL samples, each containing 1 mg of insoluble bovine neck ligament elastin. The enzymes were added to a final concentration of 0.2 µM and the metal ions to a final concentration of 0.5 mM. Samples were incubated at 37 °C for 120 min on an Eppendorf Thermomixer with shaking at 1200 rpm, and the reactions were then stopped by the addition of trichloroacetic acid to a final concentration of 5% (w/V). Samples were cleared by centrifugation and 100 µL of the supernatant was mixed with 1400 µL of 0.2 M sodium borate buffer and 500 µL of a 0.15 mg/mL solution of fluorescamine in acetone. The fluorescence of the samples was measured at an excitation wavelength of λex = 390 nm and emission wavelength of λem = 480 nm. Blank samples without added enzyme were run in parallel and their fluorescence values were subtracted from the samples. Experiments were performed in three replicates of each sample and each experiment was repeated multiple times to assure reproducibility of the results.

[5] = target: cathepsins L, K, and S; test: Kinetics of inhibition, summary over all tested peptidases; type: biochemical, human; details: range over all peptidases tested (cathepsins L, K, S); read-out: equilibrium dissociation constants (inhibition constants)
[6] = target: T2, cathepsin K; test: Degradation of insoluble bovine neck ligament elastin by cathepsin K; type: biochemical; details: metal ions 0.5 mM
Protocol: as §1

[7] = target: T1, cathepsin L; test: Degradation of insoluble bovine neck ligament elastin by cathepsin L; type: biochemical; details: metal ions 0.5 mM
Protocol: as §1

[8] = tested on: cell growth and metabolism; design: method as in PMID 7929991; details: cited from earlier work
[9] = Z-Leu-Arg-AMC, 25 °C, 0.1 M sodium acetate buffer pH 5.5, read-out: KX
[10] = Z-Phe-Arg-AMC, 25 °C, 0.1 M sodium acetate buffer pH 5.5, read-out: KX
[11] = Z-Val-Val-Arg-AMC, 25 °C, 0.1 M sodium acetate buffer pH 5.5, read-out: KX
[12] = effect on catalytic rate, general modifier mechanism
[13] = effect on substrate affinity, general modifier mechanism

T1 sequence (P07711 114-333): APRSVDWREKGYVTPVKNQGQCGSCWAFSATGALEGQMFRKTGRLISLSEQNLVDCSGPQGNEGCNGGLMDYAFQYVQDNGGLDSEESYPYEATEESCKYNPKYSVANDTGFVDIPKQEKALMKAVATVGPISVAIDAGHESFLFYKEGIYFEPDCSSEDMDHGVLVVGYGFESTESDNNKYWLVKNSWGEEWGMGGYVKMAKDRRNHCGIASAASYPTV
T3 sequence (P25774 115-331): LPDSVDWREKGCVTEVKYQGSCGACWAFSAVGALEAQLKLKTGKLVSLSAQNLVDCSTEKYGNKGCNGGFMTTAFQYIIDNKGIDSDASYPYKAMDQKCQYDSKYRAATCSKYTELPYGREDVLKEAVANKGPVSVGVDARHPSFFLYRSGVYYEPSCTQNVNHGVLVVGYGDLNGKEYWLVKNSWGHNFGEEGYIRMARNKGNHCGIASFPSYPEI

Row | Structure (SMILES) | Ki [1, 9] [µM] | Mechanism [1] | Ki [2, 10] [µM] | Mechanism [2] | Ki [3, 11] [µM] | Mechanism [3] | inhibition of elastin degradation, comparison in words [4] | Ki [5] [µM] | inhibition of elastin degradation, comparison in words [6] | inhibition of elastin degradation, comparison in words [7] | Ki ([1]; read-out: KX) [µM] | β [2, 12] | α [2, 13] | Ki ([2]; read-out: KX) [µM] | residual enzyme activity at saturation ([2]; synthetic substrate) | toxic effects on cell growth and metabolism [8] | β [3, 12] | α [3, 13] | Ki ([3]; read-out: KX) [µM] | residual enzyme activity at saturation ([3]; synthetic substrate)
1 | [Pb+2] [Pb^2+, reference compound] | 26 ± 12 | Linear specific | 135 ± 13 | Linear specific | 50 ± 5 | Linear specific | – | – | – | – | – | – | – | – | – | – | – | – | – | –
2 | [Zn+2] [Zn^2+] | 7.5 ± 0.9 | Linear specific | 7.3 ± 0.3 | Linear specific | 2.9 ± 0.5 | Linear specific | strongest inhibitor | ~1 | strongest inhibitor | – | – | – | – | – | – | – | – | – | – | –
3 | O=[N+]([O-])[O-].O=[N+]([O-])[O-].O=[N+]([O-])[O-].[Ga+3] [Ga^3+, Ga(NO3)3] | 0.6 ± 0.04 | Linear specific | 4.1 ± 0.8 | Hyperbolic mixed | 3.7 ± 0.6 | Hyperbolic mixed | – | – | – | most potent inhibitor | 0.6 | 2.4 ± 1.4 | 11.5 ± 1.0 | ~4 | about 20% | no significant toxic effects | 3.3 ± 0.5 | 11.3 ± 1.0 | ~4 | about 20%

From paper PMC9409168, “Kinetic Characterization of Cerium and Gallium Ions as Inhibitors of Cysteine Cathepsins L, K, and S” (International Journal of Molecular Sciences, 2022)
